According to patent publication US4060652A (priority 1976, dated 1977):
Read-outs that look alike come from different tables or passages of the source.

Legend:
[1] = Lethality by paralysis of respiratory muscles in rabbits; settings: rabbit, in vivo
Excerpt: In another series of experiments, we determined the intravenous dose of the muscle relaxants that caused death of 50% of the animals due to paralysis of the respiratory muscles -- lethal dose 50% (LD50).

albino mice = assay: Inhibition of turning from the lateral position in mice; format: in vivo; settings: Mus musculus, iv; mice, turning from the lateral position; read-out: ED50
Excerpt: (§1) In experiments on albino mice, the dose of Tercuronium injected into the tail vein, that inhibited the symptom of turning from the lateral position in 50 percent of mice (ED50) was 0.06 mcM/kg (18 experiments); and 50 percent of mice perished from paralysis of the respiratory muscles (LD50) following an injection of 0.09 mcM/kg of Tercuronium.

[2] = test system: nervomuscular conduction, ganglia, circulation; settings: cited from earlier work
rabbits = assay: Head-drop test in non-narcotized rabbits; format: in vivo
Procedure: In experiments (a total of twenty) on non-narcotized rabbits, the head-drop dose (HDD) was 0.022 ± 0.009 micromole/kg A complete blocking effect developed 1.5 to 2 minutes after administration of Tercuronium and persisted for 3 to 5 minutes. A few minutes later, the animal behaviour normalized. The same effect was attained with 0.18 ± 0.02 micromole/kg of α-tubocurarin (6 experiments) and 0.018 ± 0.001 mcM/kg of pancuronium (6 experiments). The time of onset and the duration of the blocking effect with all the three preparations were the same.

respiration = assay: Inhibition of respiration in narcotized and decerebrated cats (and rabbits); format: in vivo
Excerpt: This developed simultaneously with the block of the nervomuscular conduction in the anterior tibial muscle. […] The same result was obtained in experiments on rabbits. The ratio of LD50 in experiments on rabbits and mice, as specified above, also provides data on the that Tercuronium produces on respiration.

[3] = test system: nervomuscular conduction, vegetative ganglia, circulation; assay: Overall conclusions from animal experiments; format: in vivo, animals
Excerpt: The results of the pharmacological studies of the proposed muscle relaxant Tercuronium, as compared with the known muscle relaxants, enable us to make the following conclusions.

arterial pressure = assay: Effect on arterial pressure in cats and rabbits; format: in vivo
Procedure: Experiments were carried out on narcotized cats and rabbits (50 mg/kg of chloralose and 500 mg/kg urethane, intraperitoneally) and also on cats decerebrated at the quadrigeminal level. The blood pressure in the carotid artery was recorded with a mercury pressure gauge. The preparations were injected intravenously.
When Tercuronium was given in a quantity ten times exceeding the myoparalytic dose (0.8 mcM/kg) an insignificant and transient reduction (10 to 20 mm Hg) of the blood pressure was observed. The animals (7 cats and 5 rabbits) tolerated injections of very large doses of Tercuronium, viz., 10-20 mcM/kg, which is 200 times higher than the myoparalytic dose. […] In all experiments, in 1 to 2 hours, the arterial pressure restored completely or was close to the initial level.

[4] = Effect on sympathetic ganglia, third eyelid contraction in cats; format: in vivo; settings: cat, in vivo, iv, read-out: ganglioblocking dose as multiple of myoparalytic dose
Procedure: Experiments were carried out on narcotized cats. A peripheral part of the sympathetic column on the neck was stimulated with electric pulses at 5 Hz. The duration of the stimulus was 1 msec, the amplitude 5 V. The contractions of the third eyelid (nictiating membrane) and the arterial (carotid) pressure were recorded with a mercury pressure gauge. We determined the intravenous dose of Tercuronium, α-tubocurarin and pancuronium that decreased the height of contraction of the third eyelid by 50 to 60 percent in conditions of prolonged stimulation of the sympathetic column.

[5] = test system: nervomuscular conduction, anterior tibial muscle; assay: Nervomuscular block in cats, indirect stimulation of anterior tibial muscle; format: in vivo
Procedure: The preparation was studied in acute experiments on cats, rabbits, mice and pigeons, in experiments on phrenico-diaphragm preparations of rats, and also on the straight muscle of a frog abdomen. The properties of Tercuronium were compared with those of α-tubocurarin and pancuronium.
(§2) Cats were narcotized (with chloralose, 50 mg per kg body weight, and urethane, 500 mg/kg, intraperitoneally) or decerebrated at the quadrigeminal bodies level. The lungs were ventilated artificially whenever necessary. Contractions of the anterior tibial muscle were recorded in isotonic concitions in response to electric stimulation of the peripheral part of n. peroneus with supramaximum pulses of 0.1 msec at a frequency of 0.1-100 Hz.

[6] = test system: nervomuscular conduction, anterior tibial muscle; assay: Neostigmin antagonism of nervomuscular block in cats; format: in vivo
Procedure: as §2
For example, even with a 5-fold dose of tercuronium, muscle contractility was restored already in 2 to 5 minutes following a single injection of neostigmin in a dose of 0.1 mg/kg, and in 15-20 minutes the recovery of the contactile function was complete.
In the case of pancuronium and α-tubocurarin, the restoration within these short periods of time could only be attained with 2-3 fold doses of these muscle relaxants. If the dose of pancuronium was increased 4 to 5 times, weak contractions of the muscle were observed not sooner than in 9 to 10 minutes and the contraction was, restored completely only 30 minutes after the injection of neostigmin (six experiments). The restoration of muscle contractility is delayed even longer in the case of α-tubocurarin.

[7] = Lethality by paralysis of respiratory muscles in mice; settings: mouse, in vivo, iv
Excerpt: as §1

CC(=O)O[C@H]1C[C@@H]2CC[C@@H]3[C@H](CC[C@@]4(C)[C@H]3C[C@H]([N+]3(C)CCCCC3)[C@@H]4OC(C)=O)[C@@]2(C)C[C@@H]1[N+]1(C)CCCCC1 [pancuronium, reference compound]
LD50 ([1]; intravenous): 0.026 µmol/kg | selectivity ratio ([1]; read-out: LD50 to HDD ratio): 1.4 | ED50 (albino mice): 0.042 µmol/kg | conditions for tracheal intubation ([2]; 0.15 mg/kg): favourable conditions for tracheal intubation are provided | duration of myoparalytic action ([2]; background): lasts for the same period of time as that of α-tubocurarin | fold less active than α-tubocurarin in blocking conduction in sympathetic ganglia ([2]; background): 2.5 times | histamine release, ganglia and circulatory effects ([2]; background): often accelerates the pulse rate and increases arterial pressure | removal of myoparalytic action by proserpin ([2]; background): can be removed with proserpin, and cases with difficult decurarization occur less frequently than with α-tubocurarin | histamine release, ganglia and circulatory effects ([2]; background, listed as Pancuronium): does not induce production of histamine from tissues, nor does it lower arterial pressure | ED (head drop) (rabbits; Oryctolagus cuniculus, non-narcotized rabbits, read-out: head-drop dose (HDD)): 0.018 ± 0.001 µmol/kg | time of onset and duration of blocking effect, comparison (rabbits; all three preparations): the same | inhibition of respiration by blocking doses, comparison (respiration; from LD50 to ED50 ratio): equally inhibit respiration | effect on respiration (respiration; narcotized and decerebrated cats): The same effect was observed | arterial pressure and pulse rate ([3]; in vivo): stable rise in the arterial pressure, which results in increased hemorrhage in surgical operations and in accelerated pulse rate | histamine, vegetative ganglia, blood pressure and heart frequency ([3]; myoparalytic dose): do not produce histamine or block vegetative ganglia | effect on arterial pressure of 20-fold dose (arterial pressure; 20-fold dose): moderately depressive | arterial pressure on doses that inhibit respiration (arterial pressure; active ventilation of the lungs): asphyxial rise in the arterial pressure | effect on arterial pressure of myoparalytic (complete block) dose (arterial pressure; artificial ventilation): the arterial pressure did not drop either | selectivity ratio [4]: 30 | mean duration of effect [5]: nine | ED (95-100) ([5]; Felis catus, intravenous, 0.1 Hz, read-out: dose blocking nervomuscular conduction (95-100 percent)): 0.04 ± 0.001 µmol/kg | multiple of dose at which restoration within the short periods could be attained ([6]; cats, neostigmin): 2-3 fold | time to complete restoration of contraction after neostigmin ([6]; dose increased 4 to 5 times, six experiments): 30 min | number of myoparalytic doses whose blocking effect is completely removed by neostigmin ([6]; neostigmin 0.1 mg/kg intravenous, within five minutes): three | LD50 [7]: 0.062 µmol/kg | selectivity ratio ([7]; read-out: width of the muscle relaxing action (LD50/ED50)): 1.5

C[N+](C)(C)CCOC(=O)CCC(=O)OCC[N+](C)(C)C [succinylcholine, dicholine ester of succinic acid]
duration of action in patients with hepatic dysfunction and low cholinesterase ([2]; common dose): can last for a period of a few hours

CC[N+](CC)(CC)CCOc1cccc(OCC[N+](CC)(CC)CC)c1OCC[N+](CC)(CC)CC [pyrolaxon]
histamine release, ganglia and circulatory effects ([2]; background): blocks parasympathetic ganglia and produces tachycardia
